One assay concerns the target KRAS G12C (Homo sapiens, UniProt P01116, G12C). As to the kind of experiment: GDP-GTP exchange assay (fluorescence based guanine nucleotide exchange, bodipy-GDP for GppNHp, SOS1). The assay is classed as biochemical. The conditions noted are these: bodipy-loaded KRAS G12C, 2 hours pre-incubation with inhibitor, read-out: G12C_exchange (KRAS_G12C exchange assay IC50). Here is the method:
The inhibitor potency of the exemplified compounds was determined in a fluorescence based guanine nucleotide exchange assay, which measures the exchange of bodipy-GDP (fluorescently labeled GDP) for GppNHp (Non-hydrolyzable GTP analog) to generate the active state of KRAS in the presence of SOS1 (guanine nucleotide exchange factor). Inhibitors were serially diluted in DMSO and a volume of 0.1 μL was transferred to the wells of a black low volume 384-well plate. 5 μL/well volume of bodipy-loaded KRAS G12C diluted to 5 nM in assay buffer (25 mM Hepes pH 7.5, 50 mM NaCl, 10 mM MgCl2 and 0.01% Brij-35) was added to the plate and pre-incubated with inhibitor for 2 hours at ambient temperature. Appropriate controls (enzyme with no inhibitor or with a G12C inhibitor (AMG-510)) were included on the plate. The exchange was initiated by the addition of a 5 μL/well volume containing 1 mM GppNHp and 300 nM SOS1 in assay buffer. The 10 μL/well reaction concentration of the bodipy-loaded KRAS G12C, GppNHp, and SOS1 were 5-25 nM, 500 uM, and 150 nM, respectively. The reaction plates were incubated at ambient temperature for 2 hours, a time estimated for complete GDP-GTP exchange in the absence of inhibitor. For the KRAS G12D and G12V mutants, similar guanine nucleotide exchange assays were used with 2.5 nM as final concentration for the bodipy loaded KRAS proteins and with 4 hours and 3 hours incubation after adding GppNHp-SOS1 mixture for G12D and G12V, respectively. A cyclic peptide described to selectively bind G12D mutant (Sakamoto et al., BBRC 484.3 (2017), 605-611) or internal compounds with confirmed binding were used as positive controls in the assay plates. Fluorescence intensities were measured on a PheraStar plate reader instrument (BMG Labtech) with excitation at 485 nm and emission at 520 nm.
Either GraphPad prism or XLfit was used to analyze the data. The IC50 values were derived by fitting the data to a four parameter logistic equation producing a sigmoidal dose-response curve with a variable Hill coefficient. Prism equation: Y=Bottom+(Top−Bottom)/(1+10^((Log IC50−X)*Hill slope)); XLfit equation: Y=(A+((B−A)/(1+((X/C)^D)))) where X is the logarithm of inhibitor concentration and Y is the response.

Assay [1] relates to MIA PaCa-2 (KRAS G12C) cells. As to the kind of experiment: Cellular pERK HTRF assay. The assay is classed as cell-based. The conditions noted are these: Homo sapiens; MIA PaCa-2 cells, 4 hours, phospho-ERK 1/2 HTRF; read-out: G12C_pERK (KRAS_G12C pERK assay IC50). Here is the method: MIA PaCa-2 (KRAS G12C; ATCC® CRL-1420), A427 (KRAS G12D; ATCC® HTB53), HPAF-II (KRAS G12D; ATCC® CRL-1997) and NCI-H838 (KRAS WT; ATCC® CRL-5844) cells are purchased from ATCC and maintained in RPMI 1640 media supplemented with 10% FBS (Gibco/Life Technologies). The cells are plated at 5000 cells per well (8 uL) into Greiner 384-well low volume, flat-bottom, tissue culture treated white plates and incubated overnight at 37° C. 5% CO2. The next morning, test compound stock solutions are diluted in media at 3× the final concentration, and 4 uL are added to the cells. The plate is mixed by gentle rotation for 30 seconds (250 rpm) at room temperature. The cells are incubated with the KRAS G12C and G12D compounds for 4 hours or 2 hours respectively at 37° C., 5% CO2.
4 uL of 4× lysis buffer with blocking reagent (1:25) (Cisbio) are added to each well and plates are rotated gently (300 rpm) for 30 minutes at room temperature. 4 uL per well of Cisbio anti Phospho-ERK 1/2 d2 is mixed with anti Phospho-ERK 1/2 Cryptate (1:1) are added to each well, mixed by rotation and incubated overnight in the dark at room temperature. Plates are read on the Pherastar plate reader at 665 nm and 620 nm wavelengths. IC50 determination is performed by fitting the curve of inhibitor percent inhibition versus the log of the inhibitor concentration using the GraphPad Prism 7 software.

KRAS G12C, sequence (P01116 1-188 isoform P01116-2 G12C): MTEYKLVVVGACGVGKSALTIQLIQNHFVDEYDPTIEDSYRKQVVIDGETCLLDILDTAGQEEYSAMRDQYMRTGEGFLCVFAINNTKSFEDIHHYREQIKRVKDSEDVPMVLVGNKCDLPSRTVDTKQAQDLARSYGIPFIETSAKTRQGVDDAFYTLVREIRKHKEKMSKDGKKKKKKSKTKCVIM

By IC50 is commonly meant the concentration at which inhibition is half-maximal. `C=CC(=O)N1CC(Cn2c(=O)c(=O)n(-c3c(C(C)C)cccc3C(C)C)c3nc(-c4cccc(F)c4F)c(Cl)cc32)C1` [Example 5, 1-((1-acryloylazetidin-3-yl)methyl)-7-chloro-4-(2,6-diisopropylphenyl)-6-(2,3-difluorophenyl)-1,4-dihydropyrido[2,3-b]pyrazine-2,3-dione]: the results for the IC50 (on KRAS G12C; in assay [1]) were at most 100 nM and 100 to 1000 nM, respectively.
Take `C=CC(=O)N1CC(O)(Cn2c(=O)c(=O)n(-c3c(C(C)C)cccc3C(C)C)c3nc(-c4ccccc4F)c(Cl)cc32)C1` [Example 7, 1-((1-acryloyl-3-hydroxy-azetidin-3-yl)methyl)-7-chloro-4-(2,6-diisopropylphenyl)-6-(2-fluorophenyl)-1,4-dihydropyrido[2,3-b]pyrazine-2,3-dione]: the IC50 on KRAS G12C is at most 100 nM; in assay [1], 100 to 1000 nM.
For `C=CC(=O)N1CC(Cn2c(=O)c(=O)n(-c3c(C(C)C)cccc3C(C)C)c3nc(-c4ccccc4F)c(Cl)cc32)(OC)C1` [Example 8, 1-((1-acryloyl-3-methoxy-azetidin-3-yl)methyl)-7-chloro-4-(2,6-diisopropylphenyl)-6-(2-fluorophenyl)-1,4-dihydropyrido[2,3-b]pyrazine-2,3-dione] the same measures were 100 to 1000 nM and 100 to 1000 nM.
Consider `C=CC(=O)N1CC(Cn2c(=O)c(=O)n(-c3c(C(C)C)cccc3C(C)C)c3nc(-c4cccc(F)c4F)c(Cl)cc32)(OC)C1` [Example 9, 1-((1-acryloyl-3-methoxy-azetidin-3-yl)methyl)-7-chloro-4-(2,6-diisopropylphenyl)-6-(2,3-difluorophenyl)-1,4-dihydropyrido[2,3-b]pyrazine-2,3-dione], for which the IC50 (at KRAS G12C; in assay [1]) was 100 to 1000 nM in each case.
For the compound `C=CC(=O)N1CC(F)(Cn2c(=O)c(=O)n(-c3c(C(C)C)cccc3C(C)C)c3nc(-c4ccccc4F)c(Cl)cc32)C1` [Example 10, 1-((1-acryloyl-3-fluoro-azetidin-3-yl)methyl)-7-chloro-4-(2,6-diisopropylphenyl)-6-(2-fluorophenyl)-1,4-dihydropyrido[2,3-b]pyrazine-2,3-dione], the IC50 at KRAS G12C is at most 100 nM; in assay [1] it was 100 to 1000 nM.
Consider `C=CC(=O)N1CC(F)(Cn2c(=O)c(=O)n(-c3c(C(C)C)cccc3C(C)C)c3nc(-c4cccc5ccccc45)c(Cl)cc32)C1` [Example 11, 1-((1-acryloyl-3-fluoroazetidin-3-yl)methyl)-7-chloro-6-(1-naphthyl)-4-(2,6-diisopropylphenyl)-1,4-dihydropyrido[2,3-b]pyrazine-2,3-dione], for which the IC50 at KRAS G12C is at most 100 nM; in assay [1], 100 to 1000 nM.
Turning to `C=CC(=O)N1CC(F)(Cn2c(=O)c(=O)n(-c3c(C(C)C)cccc3C(C)C)c3nc(-c4c(O)cccc4F)c(Cl)cc32)C1` [Example 12, 1-((1-acryloyl-3-fluoroazetidin-3-yl)methyl)-7-chloro-4-(2,6-diisopropylphenyl)-6-(2-fluoro-6-hydroxyphenyl)-1,4-dihydropyrido[2,3-b]pyrazine-2,3-dione], the IC50 (at KRAS G12C; in assay [1]) was at most 100 nM each time.
On to `C=C(F)C(=O)N1CC(F)(Cn2c(=O)c(=O)n(-c3c(C(C)C)cccc3C(C)C)c3nc(-c4c(O)cccc4F)c(Cl)cc32)C1` [Example 13, 7-chloro-4-(2,6-diisopropylphenyl)-1-((3-fluoro-1-(2-fluoroacryloyl)azetidin-3-yl)methyl)-6-(2-fluoro-6-hydroxyphenyl)-1,4-dihydropyrido[2,3-b]pyrazine-2,3-dione], for which the IC50 (at KRAS G12C; in assay [1]) was at most 100 nM each time.
With `C=CC(=O)N1CC(F)(Cn2c(=O)c(=O)n(-c3c(C(C)C)cccc3C(C)C)c3nc(-c4cc(O)cc5ccccc45)c(Cl)cc32)C1` [Example 14, 1-((1-acryloyl-3-fluoroazetidin-3-yl)methyl)-7-chloro-4-(2,6-diisopropylphenyl)-6-(3-hydroxynaphthalen-1-yl)-1,4-dihydropyrido[2,3-b]pyrazine-2,3-dione], the IC50 (on KRAS G12C; in assay [1]) was at most 100 nM in each case.
For `C=CC(=O)N1CC(F)(Cn2c(=O)c(=O)n(-c3c(C(C)C)cccc3C(C)C)c3nc(-c4c(N)cccc4F)c(Cl)cc32)C1` [Example 15, 1-((1-acryloyl-3-fluoroazetidin-3-yl)methyl)-6-(2-amino-6-fluorophenyl)-7-chloro-4-(2,6-diisopropylphenyl)-1,4-dihydropyrido[2,3-b]pyrazine-2,3-dione], the IC50 (on KRAS G12C; in assay [1]) was at most 100 nM in each case.
Consider `C=CC(=O)N1CC(F)(Cn2c(=O)c(=O)n(-c3c(C(C)C)cccc3C(C)C)c3nc(-c4c(O)ccc(F)c4F)c(Cl)cc32)C1` [Example 16, 1-((1-acryloyl-3-fluoroazetidin-3-yl)methyl)-7-chloro-6-(2,3-difluoro-6-hydroxyphenyl)-4-(2,6-diisopropylphenyl)-1,4-dihydropyrido[2,3-b]pyrazine-2,3-dione], for which the IC50 (at KRAS G12C; in assay [1]) was at most 100 nM each time.
As to `C=CC(=O)N1CC(F)(Cn2c(=O)c(=O)n(-c3c(C)ccnc3C(C)C)c3nc(-c4c(O)cccc4F)c(Cl)cc32)C1` [Example 17, 1-((1-acryloyl-3-fluoroazetidin-3-yl)methyl)-7-chloro-6-(2-fluoro-6-hydroxyphenyl)-4-(2-isopropyl-4-methylpyridin-3-yl)-1,4-dihydropyrido[2,3-b]pyrazine-2,3-dione], the IC50 (on KRAS G12C; in assay [1]) was at most 100 nM each time.
On to `[2H]C([2H])(n1c(=O)c(=O)n(-c2c(C)ccnc2C(C)C)c2nc(-c3cncc(C)c3C)c(Cl)cc21)C1(F)CN(C(=O)C=C)C1` [Example 52, 1-((1-acryloyl-3-fluoroazetidin-3-yl)methyl-d2)-7-chloro-6-(4,5-dimethylpyridin-3-yl)-4-(2-isopropyl-4-methylpyridin-3-yl)-1,4-dihydropyrido[2,3-b]pyrazine-2,3-dione], for which the IC50 on KRAS G12C lay in the range of 1000 to 5000 nM.
Regarding `[2H]C([2H])(n1c(=O)c(=O)n(-c2c(C)ccnc2C(C)C)c2nc(-c3cccc4ccccc34)c(Cl)cc21)C1(F)CN(C(=O)C=C)C1` [Example 53, 1-((1-acryloyl-3-fluoroazetidin-3-yl)methyl-d2)-7-chloro-4-(2-isopropyl-4-methylpyridin-3-yl)-6-(naphthalen-1-yl)-1,4-dihydropyrido[2,3-b]pyrazine-2,3-dione], the half-inhibitory concentration (IC50) at KRAS G12C was at most 100 nM.
In the case of `[2H]C([2H])(n1c(=O)c(=O)n(-c2c(C)ccnc2C(C)C)c2nc(-c3ccnc(C)c3Cl)c(Cl)cc21)C1(F)CN(C(=O)C=C)C1` [Example 54, 1-((1-acryloyl-3-fluoroazetidin-3-yl)methyl-d2)-7-chloro-6-(3-chloro-2-methylpyridin-4-yl)-4-(2-isopropyl-4-methylpyridin-3-yl)-1,4-dihydropyrido[2,3-b]pyrazine-2,3-dione], the IC50 on KRAS G12C was in the range of 100 to 1000 nM.
For the compound `[2H]C([2H])(n1c(=O)c(=O)n(-c2c(C)ccnc2C(C)C)c2nc(-c3ccccc3-c3ccccc3)c(Cl)cc21)C1(F)CN(C(=O)C=C)C1` [Example 55, 6-([1,1′-biphenyl]-2-yl)-1-((1-acryloyl-3-fluoroazetidin-3-yl)methyl-d2)-7-chloro-4-(2-isopropyl-4-methylpyridin-3-yl)-1,4-dihydropyrido[2,3-b]pyrazine-2,3-dione], on KRAS G12C, the IC50 fell in the range of 100 to 1000 nM.

These data come from patent US11767320B2, “Bicyclic dione compounds as inhibitors of KRAS” (INCYTE CORPORATION, priority 2020, dated 2023).
